{"source": "patent US20040219175A1", "about": "“Thermogelling emulsions for sustained release of bioactive substances” (Industrial Technology Research Institute, priority 2002, published 2004)", "test_system": "hepatitis B virus", "test": "Anti-viral effect on hepatitis B virus in SCID mice injected with patient serum, plasma HBsAg by ELISA", "assay_type": "in vivo", "method": "The serum of the patient infected with hepatitis B virus was collected and injected into the SCID mice. Interferon-alpha, Interferon-alpha-containing emulsions and untreated groups of mice were divided to evaluate antiviral bioactivity of inteferon. Different formulations were administered at the interferon-alpha dose of 1000 units/g body weight of mice. Three days later, blood was collected and the concentrations of hepatitis B virus surface antigen (HBsAg) in plasma were determined by ELISA method."}
{"substance": "Interferon-alpha", "values": [{"measurement": "anti-viral effect compared to the untreated control", "setting": "p<0.05", "value": "statistically significant anti-viral effect"}, {"measurement": "relative HBsAg ratio to the untreated control", "setting": "plasma, three days after 1000 units/g body weight, untreated defined as 1.0", "value": "0.29±0.4"}]}
